Test results published in patent US20080254152A1, “Methods for Reducing the Effects of Stress on Skin Condition” (priority 2003, published 2008).

Tests used:
Assay type in all cases: cell-based
[1] = system: MMP-1 expression in human neonatal dermal fibroblast cells; experiment: Active MMP-1 in neonatal-derived human dermal fibroblasts after chronic dexamethasone and PMA; conditions: for Suppression of MMP-1 synthesis and secretion vs control, untreated cells: chronic 1 μM dexamethasone 5 days then 1 μM PMA, neonatal fibroblasts
Method: (§1) In this study, to understand better the effect of chronic stress on dermal matrix remodelling in the skin, we have therefore measured changes in markers of dermal matrix degradation (MMP-1) and dermal matrix synthesis (Procollagen I) in chronically glucocorticoid-treated primary human dermal fibroblasts, following acute stress with PMA. The experimental approach is similar to that described in example 1 except that the cells tested are dermal fibroblasts and cells are assayed for expression of procollagen-1, MMP-1 and MMP-9 expression.
(§2) Primary human dermal fibroblast cells were cultured and passaged in DMEM (Gibco) supplemented with 10% FBS (foetal bovine serum). Cells were routinely plated out in 6-well tissue culture dishes, at a seeding density of ˜5000 cells/cm^2 in 2 ml complete medium/well for 24 hours, and incubated at 37° C. in 5% CO2. Media was removed and cells grown in DMEM & 1% FBS, 24 hours prior to treatments.
(§3) Pre-treatment and test solutions were prepared in DMEM containing low serum (1% FBS). […] Following this, the cells were oxidatively stressed for 24 hours with 1 μM PMA (Sigma P8139).
MMP-1 and MMP-9 protein in each cell supernatant was estimated using the Human active MMP-1 and MMP-9 Fluorokine enzyme kit (R&D Systems F1M00 and F9M00, respectively), according to the manufacturer's instructions.
Six MMP-1 and MMP-9 standards were prepared in calibrator diluent at concentrations ranging from 0.39 to 12.5 ng/ml and 0.25 to 16 ng/ml, respectively. 100 μl of assay diluent and 150 μl of tissue culture supernatant or standard was added to duplicate wells. The plate was incubated at room temperature for 3 hours on a horizontal orbital plate shaker before being washed four times with wash buffer. 200 μl of APMA was added to each well and the plate incubated at 37° C. for 2 hours in a humidified environment and protected from the light. The plate was washed as before. Each well received 200 μl of substrate solution and the plate incubated at 37° C. for 17-20 hours in a humidified environment and protected from the light. The relative fluorescence unit (RFU) of each well was determined using a fluorescence plate set with 1×20 mS integration time, plate speed ˜6; excitation wavelength set to 320 nm and emission wavelength set to 405 nm.
A standard curve was plotted of mean RFU versus MMP-1 and MMP-9 concentration (respectively), and the line of best fit calculated by regression analysis. The unknown concentration of either active MMP-1 or MMP-9 protein in all of the samples was estimated from this.
(§4) The same methods were used as described in Example 2, except that various test agents were added to the cells during the pre-treatment period.

[2] = system: procollagen-1 expression in human neonatal dermal fibroblast cells; experiment: Procollagen I C-peptide EIA in neonatal-derived human dermal fibroblasts after chronic dexamethasone and PMA; conditions: chronic dexamethasone then 1 μM PMA; T6; neonatal fibroblasts; FIG. 8
Method: as §1, §2, §3
Collagen I is synthesised as a precursor molecule, Procollagen I. The amount of free propeptide therefore, reflects stoichiometrically, the amount of collagen I synthesised. The Procollagen Type I C-peptide Enzyme Immunoassay (EIA) kit allows for the quantitative determination of Procollagen Type I C-peptide (PIP).
Eight PIP standards were prepared in sample diluent at concentrations ranging from 0 to 640 ng/ml. 100 μl of antibody-Peroxidase conjugate solution and 20 μl of cell lysate (1 μg protein) or standard was added to duplicate wells. The plate was sealed and incubated at 37° C. for 3 hours before being washed four times with 400 μl of PBS. Each well then received 100 μl of substrate solution and the plate incubated at room temperature, on the benchtop, for 15 minutes. After this period, 100 μl stop solution was added to each well and absorbance measured at 450 nm with a plate reader.
A standard curve was plotted of mean absorbance versus PIP concentration and the line of best fit calculated by regression analysis. The unknown concentration of PIP in all the samples was estimated from this.
as §4

[3] = system: IL-6 expression in neonatal-derived human dermal fibroblasts; experiment: IL-6 in neonatal-derived human dermal fibroblasts after chronic dexamethasone and PMA; conditions: GC-treated neonatal fibroblasts after PMA; T6 and T24; data not shown
Method: The IL-6 protein concentration of each tissue culture supernatant was assayed using the QuantiGlo Q6000 Human IL-6 assay (R&D Systems) according to the manufacturer's instructions.
Six IL-6 standards were prepared in calibrator diluent at concentrations ranging from 0 to 3000 pg/ml. 50 μl of assay diluent and 150 μl of tissue culture supernatant or standard was added to duplicate wells. The plate was incubated at room temperature for 2 hours on a horizontal orbital plate shaker before being washed four times with wash buffer. 200 μl of IL-6 conjugate was added to each well and the plate incubated at room temperature for 3 hours on a horizontal orbital plate shaker (˜500 rpm). The plate was washed as before. […] The relative light unit (RLU) of each well was determined using a luminometer set with 1 minute lag time, 1 second/well read time, summation mode and automatic gain on.
A standard curve was plotted of mean RLU versus IL-6 concentration and the line of best fit calculated by regression analysis. […]
In this study, to understand better the effect of chronic stress on dermal matrix remodelling in the skin, we have therefore measured changes in markers of dermal matrix degradation (MMP-1) and dermal matrix synthesis (Procollagen I) in chronically glucocorticoid-treated primary human dermal fibroblasts, following acute stress with PMA. […]

## C[C@@H]1C[C@H]2[C@@H]3CCC4=CC(=O)C=C[C@]4(C)[C@@]3(F)[C@@H](O)C[C@]2(C)[C@@]1(O)C(=O)CO [Dexamethasone]
[1]; GC-treated neonate fibroblasts
  Level of active MMP-1: 15 ng/mL
[1]; T6
  Suppression of MMP-1 synthesis and secretion vs control, untreated cells: ~60%
[1]; T24
  Suppression of MMP-1 synthesis and secretion vs control, untreated cells: 80%
[1]; T48
  Suppression of MMP-1 synthesis and secretion vs control, untreated cells: 70%
[2]
  Inhibition of Procollagen-1 synthesis vs control, untreated cells: ~50%
[3]
  Reduction in Interleukin-6 synthesis vs vehicle treated cells: ~80%
